Assay results as given in patent publication US20260166029A1, “METHODS AND SYSTEMS FOR TREATING DISEASE USING AN ATR/CHK1 SIGNALING PATHWAY INHIBITOR” (Acrivon Therapeutics, Inc., priority 2022, published 2026).

Legend:
Experiment in all cases: Cell viability, sensitivity to prexasertib (Example 1)
Format in all cases: cell-based, human
MCF7 = MCF7 cell line
Description: (§1) Predicted response to prexasertib was compared to experimentally measured sensitivity to prexasertib. […] EC50 values of less than or equal to 1 μM were considered to be actual responders, while values of greater than 1 μM were considered to be actual non-responders.

A549 = A549 cell line
Description: as §1

Kuramochi = Kuramochi cell line
Description: as §1

U2020 = U2020 cell line
Description: as §1

T47D = T47D cell line
Description: as §1

OVCAR3 = OVCAR3 cell line
Description: as §1

A2780 = A2780 cell line
Description: as §1

PC3 = PC3 cell line
Description: as §1

DU145 = DU145 cell line
Description: as §1

BT549 = BT549 cell line
Description: as §1

U1752 = U1752 cell line
Description: as §1

CAOV3 = CAOV3 cell line
Description: as §1

[1] = Homo sapiens, reduction in cell viability by 50%
[2] = based on measured sensitivity (EC50)

EC50 (MCF7; [1]): > 10000 nM
EC50 (A549; [1]): > 10000 nM
EC50 (T47D; [1]): > 10000 nM
EC50 (OVCAR3; Homo sapiens, OVCAR-3, reduction in cell viability by 50%): 19 nM
EC50 (A2780; [1]): > 10000 nM
EC50 (PC3; Homo sapiens, PC-3, reduction in cell viability by 50%): > 10000 nM
EC50 (DU145; Homo sapiens, DU-145, reduction in cell viability by 50%): > 10000 nM
EC50 (BT549; Homo sapiens, BT-549, reduction in cell viability by 50%): 21 nM
Compound: COc1cccc(OCCCN)c1-c1cc(Nc2cnc(C#N)cn2)n[nH]1 [prexasertib, 5-(5-(2-(3-aminopropoxy)-6-methoxyphenyl)-1H-pyrazol-3-ylamino)pyrazine-2-carbonitrile]
Actual response status (MCF7; [2]): NR (values of greater than 1 μM were considered to be actual non-responders)
Actual response status (A549; [2]): NR (values of greater than 1 μM were considered to be actual non-responders)
EC50 (Kuramochi; [1]): 24 nM
Actual response status (Kuramochi; [2]): R (EC50 values of less than or equal to 1 μM were considered to be actual responders)
EC50 (U2020; [1]): 7 nM
Actual response status (U2020; [2]): R (EC50 values of less than or equal to 1 μM were considered to be actual responders)
Actual response status (T47D; [2]): NR (values of greater than 1 μM were considered to be actual non-responders)
Actual response status (OVCAR3; [2]): R (EC50 values of less than or equal to 1 μM were considered to be actual responders)
Actual response status (A2780; [2]): NR (values of greater than 1 μM were considered to be actual non-responders)
Actual response status (PC3; [2]): NR (values of greater than 1 μM were considered to be actual non-responders)
Actual response status (DU145; [2]): NR (values of greater than 1 μM were considered to be actual non-responders)
Actual response status (BT549; [2]): R (EC50 values of less than or equal to 1 μM were considered to be actual responders)
EC50 (U1752; [1]): > 10000 nM
Actual response status (U1752; [2]): NR (values of greater than 1 μM were considered to be actual non-responders)
Actual response status (CAOV3; [2]): R (EC50 values of less than or equal to 1 μM were considered to be actual responders)
EC50 (CAOV3; Homo sapiens, Caov-3, reduction in cell viability by 50%): 17 nM
